How the values were obtained:
Format in all cases: in vivo
[1] = tested on: fighting episodes in mice; experiment: Suppression of fighting behavior (electric foot-shock induced fighting); conditions: Mus musculus; female mice, oral, 60 min before foot-shock for 3 min; dose to suppress 50% of fighting pairs
Method: I. suppression of Fighting Behavior
Fighting episodes were produced in mice by the method described by Tedeschi et al in Journal of Pharmacology and Experimental Therapeutics, Vol. 125, pp. 28 ff. (1959). Groups of 8 female mice (4 pairs) were given orally, the test compound 60 minutes prior to receiving electric foot-shock for 3 minutes with 530 volts of interrupted direct current, 1.3 milliamperes, 10 Hz. […] The control mice of 81 pairs had shown the fighting episodes of 8.7 times on the average under the same conditions. The ED50, a dose required to suppress 50% of fighting pairs was determined graphically.

[2] = Anti-megimide effect (prevention of tonic extensor convulsion); conditions: Mus musculus, ip; mice, intraperitoneal, 60 min before megimide 80 mg/kg s.c.; tonic extensor convulsion prevented for 3 hours in 50%; read-out: Antimegimide Effect ED50
Method: Iii. anti-megimide Effect
Megimide (80 mg/kg) was administered subcutaneously to groups, each of 6 mice, 60 minutes after intra-peritoneal administration of the test compound. The ED50, a dose required to prevent for 3 hours, the tonic extensor convulsion induced by the administration of megimide in 50% of the animals, was determined graphically.

[3] = Anti-pentylenetetrazole effect (prevention of death); conditions: Mus musculus, ip; mice, intraperitoneal, 15 min before pentylenetetrazole 150 mg/kg s.c.; dead mice counted at 3 hours; read-out: Antipentylenetetrazole Effect ED50
Method: Ii. anti-pentylenetetrazole Effect
Pentylenetetrazole (150 mg/kg) was administered subcutaneously to groups, each of 6 mice, 15 minutes after intraperitoneal administration of the test compound. The number of dead mice were counted 3 hours after the administration of pentylenetetrazole, and then the ED50, a dose required to reduce the number of dead mice to 50%, was determined graphically.

| SMILES | ED50 [1] [mg/kg] | ED50 [2] [mg/kg] | ED50 [3] [mg/kg] |
| --- | --- | --- | --- |
| Cc1cc2c(s1)-n1c(nn(C)c1=O)CN=C2c1ccccc1Cl [A, 2,8-Dimethyl-6-o-chlorophenyl-1,2-dihydro-4H-s-triazolo [3,4-c]-thieno[2,3-e][1,4]diazepin-1-one] | 4.8 | 1.3 | 0.9 |
| CCc1cc2c(s1)-n1c(nn(C)c1=O)CN=C2c1ccccc1Cl [B, 2-Methyl-6-o-chlorophenyl-8-ethyl-1,2-dihydro-4H-s-triazolo[3,4-c]-thieno[2,3-e][1,4]diazepin-1-one] | 0.8 | 5.7 | 1.4 |
| CCc1cc2c(s1)-n1c(n[nH]c1=O)CN=C2c1ccccc1Br [C, 6-o-Bromophenyl-8-ethyl-1,2-dihydro-4H-s-triazolo[3,4-c]-thieno[2,3-e]-[1,4]diazepin-1-one] | 2.7 | 7.2 | 2.6 |

Source: US3965111A, “Triazolothienodiazepine compounds” (Yoshitomi Pharmaceutical Industries, Ltd., priority 1971, dated 1976)
